The subject of the assay is human fibroblasts derived from older donors. The assay is described as follows: Cell migration of human fibroblasts (wound, crystal violet, occupied surface). It is filed as cell-based. The note with it: for Cell migration: vs older control (Table 5). The protocol: Cell migration is the ability of certain cells to move. In vitro, it is evaluated by the number of cells covering a surface that is initially empty (Kim et al., 2015; Lampugnani, 1999). The migratory capacity of the cells is reduced with age (Boulter et al., 2013).
Their action was studied on a human fibroblast culture derived from older donors.
On D0, the human fibroblasts are seeded and incubated at 37° C.
After several days of culture, the insert is removed from the culture chamber, creating a wound. The cells are treated with an active ingredient according to the invention or the red flower extract or a solution of N-(1-deoxy-1-fructosyl)-proline then incubated at 37° C.
After several days of culture, the cells are stained with a crystal violet solution at 0.5% (M/V). The viewing is done with an AxioCam MRc camera with microscope coupled to an image analysis system.
The surface ratio occupied by the cells is calculated automatically using software.

For the compound `O=C(CN1CCCC1C(=O)O)C(O)C(O)C(O)CO` (stereo not shown) [N-(1-deoxy-1-fructosyl)-proline], the Occupied surface ratio is given as 0.266 UA (1.5 ppm (Table 5)) and 0.328 UA (5 ppm (Table 5)). The Cell migration by setting is: (1.5 ppm) 0%; (5 ppm) “+19%”.

The values are drawn from US20250295577A1, “EXTRACT OF YOUNG FLOWERS AND COSMETIC USES” (SOCIETE INDUSTRIELLE LIMOUSINE D'APPLICATION BIOLOGIQUE, priority 2021, published 2025).
